The source of these data is ChEMBL document CHEMBL4422633, “Antioxidant-Inspired Drug Discovery: Antitumor Metabolite Is Formed in Situ from a Hydroxycinnamic Acid Derivative upon Free-Radical Scavenging” (J Med Chem, 2019).

One data set relates to A549. Briefly: Cytotoxicity against human A549 cells assessed as reduction in cell viability after 72 hrs by MTT assay. Type of data set: functional, cell-based. Conditions: A549, 72 h.
Data set [1] has as its system NCI-H460. As to the kind of experiment: Induction of apoptosis in human NCI-H460 cells assessed as necrotic cells at 40 nM after 24 hrs by Annexin V/propidium iodide-staining based flow cytometry (reference value: 2.13 +/- 0.02%). Type of data set: functional.
The test system of data set [2] is HaCaT. As to the kind of experiment: Induction of apoptosis in human HaCaT cells assessed as necrotic cells at 40 nM after 24 hrs by Annexin V/propidium iodide-staining based flow cytometry (reference value: 1.88 +/- 0.02%). It is filed as cell-based. Conditions: 0.04 µM.
The nature of data set [3]: Cytotoxicity against mouse L5178B1 cells transfected with pHa MDR1/A retrovirus assessed as reduction in cell viability after 72 hrs by MTT assay. It is filed as functional, cell-based. As to conditions: MDR1, 72 h. (In general: Tetrazolium dyes change colour on reduction, which living cells bring about.)
Another data set concerns NCI-H661. As to the kind of experiment: Cytotoxicity against human NCI-H661 cells assessed as reduction in cell viability after 72 hrs by MTT assay. It is filed as functional, cell-based. Conditions: NCI-H661, 72 h.
Data set [4] concerns NCI-H460. Briefly: Induction of apoptosis in human NCI-H460 cells assessed as early apoptotic cells at 40 nM after 24 hrs by Annexin V/propidium iodide-staining based flow cytometry (reference value: 0.45 +/- 0.01%). It is filed as functional. On the technique in general: Flow cytometry measures light scatter and fluorescence of single cells or particles in a stream.
Data set [5] can be described thus: Cytotoxicity against mouse L5178 cells assessed as reduction in cell viability after 72 hrs by MTT assay. Type of data set: functional, cell-based. Conditions: L5178, 72 h.
The test system of data set [6] is HaCaT. Briefly: Induction of apoptosis in human HaCaT cells assessed as late apoptotic cells at 40 nM after 24 hrs by Annexin V/propidium iodide-staining based flow cytometry (reference value: 0.93 +/- 0.04%). Type of data set: cell-based. Conditions: 0.04 µM.
Data set [7] relates to NCI-H460. Briefly: Induction of apoptosis in human NCI-H460 cells assessed as late apoptotic cells at 40 nM after 24 hrs by Annexin V/propidium iodide-staining based flow cytometry (reference value: 0.93 +/- 0.04%). Type of data set: functional.
A short description of data set [8]: Cytotoxicity against human NCI-H460/R cells transfected with MDR assessed as reduction in cell viability after 72 hrs by MTT assay. It is filed as functional, cell-based. As to conditions: NCI-H460, 72 h.
A further data set deals with SiHa. Briefly: Cytotoxicity against human SiHa cells assessed as reduction in cell viability after 72 hrs by MTT assay. Type of data set: functional, cell-based.
Data set [9] has as its system NCI-H460. As to the kind of experiment: Cytotoxicity against human NCI-H460 cells assessed as reduction in cell viability after 72 hrs by MTT assay. It is filed as functional, cell-based. Conditions: NCI-H460, 72 h.
The test system of data set [10] is HaCaT. Briefly: Induction of apoptosis in human HaCaT cells assessed as early apoptotic cells at 40 nM after 24 hrs by Annexin V/propidium iodide-staining based flow cytometry (reference value: 0.23 +/- 0.01%). Type of data set: cell-based. As to conditions: 0.04 µM.
A short description of data set [11]: Induction of apoptosis in human HaCaT cells assessed as viable cells at 40 nM after 24 hrs by Annexin V/propidium iodide-staining based flow cytometry (reference value: 95.63 +/- 3.83%). It is filed as cell-based. Conditions: read-out: Activity.
Data set [12] concerns NCI-H460. Briefly: Induction of apoptosis in human NCI-H460 cells assessed as viable cells at 40 nM after 24 hrs by Annexin V/propidium iodide-staining based flow cytometry (reference value: 96.49 +/- 0.96%). Type of data set: functional. Conditions: NCI-H460, 24 h, read-out: Activity.
Data set [13] has as its system HaCaT. Briefly: Cytotoxicity against human HaCaT cells assessed as reduction in cell viability after 72 hrs by MTT assay. It is filed as cell-based.

As for `COc1cccc2c1C(=O)c1c(O)c3c(c(O)c1C2=O)C[C@@](O)(C(=O)CO)C[C@@H]3O[C@H]1C[C@H](N)[C@H](O)[C@H](C)O1` [DOXORUBICIN], the IC50 turned out to be 550 nM in the data set on A549; 11800 nM in data set [3]; 350 nM in the data set with NCI-H661; 410 nM in data set [5]; 1890 nM in data set [8]; 760 nM in the data set on SiHa. Besides, the half-inhibitory concentration (IC50) in the data set with NCI-H460 [9] is 40 nM; with HaCaT [13] it was 30 nM. The Activity with NCI-H460 [1] is recorded as 6.7%; with HaCaT [2] it was 7.82%; in the data set with NCI-H460 [4] it was 4.05%; with HaCaT [6], 3.04%; in the data set on NCI-H460 [7], 4.11%; with HaCaT [10], 11.03%. Moreover, the viability at 24 h, 0.04 µM in data set [11] turned out to be 78.1%. In addition, in the data set on NCI-H460 [12], the viability at 0.04 µM stood at 85.1%.

One may read the IC50 as the concentration that gives 50% inhibition.
